{"source": "paper PMC7933930", "about": "“Development of a small molecule that corrects misfolding and increases secretion of Z α1‐antitrypsin” (EMBO Molecular Medicine, 2021)", "key": {"[1]": {"molecular_target": "T1, plasma‐purified wild‐type M α1‐antitrypsin (Homo sapiens, UniProt P01009)", "T1 construct": "purified from the plasma of M (wild‐type) and Z α1‐antitrypsin homozygotes; from tissue; host or cells: human plasma of M (wild-type) homozygotes", "T1 sequence (P01009 25-418)": "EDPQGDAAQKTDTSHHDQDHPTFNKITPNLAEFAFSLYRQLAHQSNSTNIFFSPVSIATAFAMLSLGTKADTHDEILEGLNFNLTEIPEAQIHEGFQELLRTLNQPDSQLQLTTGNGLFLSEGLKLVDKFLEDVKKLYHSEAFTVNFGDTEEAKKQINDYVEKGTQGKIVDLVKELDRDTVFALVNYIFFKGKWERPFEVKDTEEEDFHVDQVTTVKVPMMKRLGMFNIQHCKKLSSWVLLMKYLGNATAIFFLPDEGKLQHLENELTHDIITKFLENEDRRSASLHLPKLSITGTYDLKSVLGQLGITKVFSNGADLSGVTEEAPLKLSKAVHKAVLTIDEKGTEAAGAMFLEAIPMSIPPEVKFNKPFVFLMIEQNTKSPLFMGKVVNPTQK", "test": "Competition binding assay with Alexa488‐labelled analogue of GSK716, M α1‐antitrypsin", "from_the_text": "The shape of the curves and native mass spectrometry (not shown) are consistent with a single high‐affinity compound binding site. No binding of the fluorescent derivative to polymers of Z α1‐antitrypsin was observed, indicating conformational selectivity for the monomeric protein (Fig 1D). The rate of interaction of the compound with the target was monitored through changes in intrinsic tryptophan fluorescence (Dafforn et al, 1999); this property was used to determine the second‐order association rate constants for GSK716 binding to Z (4.1 × 10^4 M^−1 s^−1) and M α1‐antitrypsin (2.1 × 10^2 M^−1 s^−1; Fig 1E and F). […] Therefore, the selectivity of the compound for Z over M α1‐antitrypsin is dominated by the difference in the rate of association rather than dissociation.\n(§1) Kinetic parameters of GSK716 binding to M, Z, S (Glu264Val) and Baghdad (Ala336Pro) (Haq et al, 2016) α1‐antitrypsin were measured by detecting intrinsic tryptophan fluorescence of the protein (excitation at 280 nm and detection of emission at 320 nm) on a stopped flow apparatus (Applied Photophysics) (Kim & Yu, 1996; Dafforn et al, 1999). […]"}, "[2]": {"molecular_target": "polymers of Z α1‐antitrypsin (Homo sapiens, UniProt P01009, E366K)", "sequence (P01009 25-418 E366K)": "as the sequence (P01009 25-418) above, with E342K counted along it", "test": "Binding to Z α1‐antitrypsin polymers (fluorescence polarisation)", "procedure": "Figure 1 Characteristics of the lead series of chiral hydroxy‐carboxamides identified from the ELT screen • The structure of GSK425, identified from the ELT screen, and the derived compound GSK716 obtained through a structure‐based design pipeline. • The degree of polymerisation of Z α1‐antitrypsin after 72 h at 37°C, as determined by an end‐point immunoassay using the 2C1 monoclonal antibody, in varying concentrations of compound (shown in panel A). […] Data presented as mean ± SD. • The compound bound to monomeric but not polymeric Z α1‐antitrypsin (Z α1‐AT) as reported by fluorescence polarisation of an Alexa‐488‐labelled variant of GSK716. • Representative curves reporting the interaction of different concentrations of GSK716 with Z α1‐antitrypsin based on changes in intrinsic tryptophan fluorescence.\nas §1"}, "[3]": {"test_system": "Z α1‐antitrypsin polymers in iPSC‐derived human hepatocytes (ZZ genotype)", "test": "Z α1‐antitrypsin polymerisation in ZZ iPSC‐derived human hepatocytes", "assay_type": "cell-based", "conditions": "Hepatocyte, n = 16, read-out: mean pIC50, polymerisation (converted)"}, "antithrombin": {"molecular_target": "antithrombin (Homo sapiens, UniProt P01008)", "sequence (P01008 33-464)": "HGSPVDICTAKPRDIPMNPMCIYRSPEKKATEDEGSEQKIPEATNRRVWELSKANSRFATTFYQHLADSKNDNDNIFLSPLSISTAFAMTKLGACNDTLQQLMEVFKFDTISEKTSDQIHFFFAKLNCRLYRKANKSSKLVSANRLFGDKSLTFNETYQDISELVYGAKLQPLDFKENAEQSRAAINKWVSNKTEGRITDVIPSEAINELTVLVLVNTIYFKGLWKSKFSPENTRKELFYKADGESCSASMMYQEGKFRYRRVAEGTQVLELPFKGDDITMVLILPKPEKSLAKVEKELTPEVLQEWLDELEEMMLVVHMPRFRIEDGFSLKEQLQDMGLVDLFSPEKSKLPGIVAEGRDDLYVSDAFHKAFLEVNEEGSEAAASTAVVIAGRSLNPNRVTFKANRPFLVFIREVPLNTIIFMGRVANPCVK", "test": "Inhibitory activity of antithrombin against thrombin", "assay_type": "biochemical", "procedure": "Figure 5 The effect of GSK716 on serpin inhibitory activity • α1‐Antitrypsin was incubated at varying molar ratios with the model protease bovine α‐chymotrypsin, and the residual protease activity determined. The intercept of the regression with the abscissa reflects the number of molecules of α1‐antitrypsin required to inhibit one molecule of chymotrypsin in the presence (+c) and absence (−c) of 50µM GSK716. Error bars reflect ± SEM of three independent experiments. • M α1‐antitrypsin was incubated with different molar ratios of chymotrypsin and resolved by SDS–PAGE. The position of covalent α1‐antitrypsin‐chymotrypsin complex (cpx), native (nat) and cleaved (clv) is shown. • The inhibitory activity of α1‐antichymotrypsin against chymotrypsin (ach + chym), neuroserpin against trypsin (neus + tryp), and antithrombin against thrombin (atiii + thrombin) was determined in the presence and absence of GSK716. Error bars reflect ± SD of two independent experiments.\nGSK716 selectivity and PK properties were profiled in order to investigate the suitability of GSK716 for progression into in vivo studies and the potential for taking it forward as a clinical candidate for testing in humans. Since GSK716 results in loss of inhibitory activity of α1‐antitrypsin, the effect of the compound was assessed on other closely related serpins. […]"}, "Solubility in FaSSIF": {"test": "Solubility in FaSSIF", "assay_type": "physicochemical", "conditions": "amorphous, read-out: solubility of amorphous drug substance in FaSSIF"}, "Adenosine A2a": {"molecular_target": "Adenosine A2a (Homo sapiens, UniProt P29274)", "sequence (P29274 whole entry)": "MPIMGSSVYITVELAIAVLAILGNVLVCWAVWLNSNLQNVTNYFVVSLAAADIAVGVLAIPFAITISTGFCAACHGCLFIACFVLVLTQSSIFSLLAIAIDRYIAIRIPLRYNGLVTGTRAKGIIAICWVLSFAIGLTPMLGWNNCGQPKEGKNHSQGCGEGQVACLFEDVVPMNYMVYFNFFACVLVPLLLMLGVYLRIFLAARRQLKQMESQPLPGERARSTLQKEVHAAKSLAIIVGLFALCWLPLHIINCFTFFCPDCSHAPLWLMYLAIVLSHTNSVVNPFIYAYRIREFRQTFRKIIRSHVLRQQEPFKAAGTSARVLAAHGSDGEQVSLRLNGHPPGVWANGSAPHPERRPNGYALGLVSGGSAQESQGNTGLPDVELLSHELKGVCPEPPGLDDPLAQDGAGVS", "test": "Off‐target panel: Adenosine A2a", "assay_type": "cell-based", "conditions": "Agonist, read-out: Mean (PXC50)", "procedure": "(§2) GSK716 selectivity and PK properties were profiled in order to investigate the suitability of GSK716 for progression into in vivo studies and the potential for taking it forward as a clinical candidate for testing in humans. Since GSK716 results in loss of inhibitory activity of α1‐antitrypsin, the effect of the compound was assessed on other closely related serpins. […] Furthermore, there were no off‐target effects in a panel of assays considered predictive of known safety liabilities that precluded further development of GSK716 (Table EV1)."}, "Muscarinic M1": {"molecular_target": "T2, Muscarinic M1 (Homo sapiens, UniProt P11229)", "T2 sequence (P11229 1-460)": "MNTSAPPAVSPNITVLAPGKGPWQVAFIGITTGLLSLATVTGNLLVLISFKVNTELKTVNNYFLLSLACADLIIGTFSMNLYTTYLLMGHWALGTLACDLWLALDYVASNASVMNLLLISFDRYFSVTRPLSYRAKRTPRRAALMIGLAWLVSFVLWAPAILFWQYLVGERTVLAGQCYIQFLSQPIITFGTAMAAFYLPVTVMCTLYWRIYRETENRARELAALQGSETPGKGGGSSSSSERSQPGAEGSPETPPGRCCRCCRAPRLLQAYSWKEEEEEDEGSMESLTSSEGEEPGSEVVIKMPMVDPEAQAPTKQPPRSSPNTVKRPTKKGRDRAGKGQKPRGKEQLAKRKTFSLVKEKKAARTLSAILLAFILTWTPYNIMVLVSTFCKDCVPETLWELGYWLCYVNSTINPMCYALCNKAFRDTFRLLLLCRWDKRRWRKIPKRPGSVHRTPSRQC", "test": "Off‐target panel: Muscarinic M1", "assay_type": "cell-based", "procedure": "as §2"}, "NK1 (TACR1)": {"molecular_target": "NK1 (TACR1) (Homo sapiens, UniProt P25103)", "sequence (P25103 whole entry, species assumed)": "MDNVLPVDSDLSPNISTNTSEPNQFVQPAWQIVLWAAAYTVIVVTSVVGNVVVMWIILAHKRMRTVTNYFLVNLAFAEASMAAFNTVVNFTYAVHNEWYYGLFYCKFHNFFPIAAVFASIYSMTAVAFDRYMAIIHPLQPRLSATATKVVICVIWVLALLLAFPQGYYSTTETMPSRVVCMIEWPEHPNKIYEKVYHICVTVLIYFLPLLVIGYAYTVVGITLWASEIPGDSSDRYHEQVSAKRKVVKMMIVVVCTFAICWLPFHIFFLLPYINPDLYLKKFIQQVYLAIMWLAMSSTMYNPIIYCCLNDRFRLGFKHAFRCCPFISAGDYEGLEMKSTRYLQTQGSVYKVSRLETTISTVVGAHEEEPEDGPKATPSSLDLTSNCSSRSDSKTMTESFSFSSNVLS", "test": "Off‐target panel: NK1 (TACR1) (DRX)", "assay_type": "cell-based", "conditions": "Antagonist, read-out: Mean (PXC50)", "procedure": "as §2"}, "Phospholipidosis": {"test_system": "Phospholipidosis", "test": "Off‐target panel: Phospholipidosis", "assay_type": "cell-based", "conditions": "Induction (pMEC)", "procedure": "as §2"}, "PXR (rat)": {"molecular_target": "PXR (rat) (Rattus norvegicus, UniProt Q9R1A7)", "sequence (Q9R1A7 whole entry)": "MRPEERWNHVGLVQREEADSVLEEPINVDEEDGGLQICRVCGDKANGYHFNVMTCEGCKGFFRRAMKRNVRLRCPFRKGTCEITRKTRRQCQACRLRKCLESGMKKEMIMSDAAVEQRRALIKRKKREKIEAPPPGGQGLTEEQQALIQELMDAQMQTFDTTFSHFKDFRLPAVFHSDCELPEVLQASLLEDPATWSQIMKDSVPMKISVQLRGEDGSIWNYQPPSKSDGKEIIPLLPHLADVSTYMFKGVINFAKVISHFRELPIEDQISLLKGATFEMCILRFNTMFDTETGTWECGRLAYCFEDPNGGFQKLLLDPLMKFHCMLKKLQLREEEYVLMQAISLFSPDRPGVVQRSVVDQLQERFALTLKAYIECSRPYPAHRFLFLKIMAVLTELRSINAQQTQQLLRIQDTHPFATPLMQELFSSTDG", "test": "Off‐target panel: PXR (rat)", "assay_type": "cell-based", "procedure": "as §2"}}, "data": [{"smiles": "CCC[C@@H](NC(=O)c1cccc2c1CC(=O)N2)[C@@H](O)c1cccc(F)c1C", "note": "[GSK716]", "values": [{"measurement": "selectivity: affinity for Z over M α1‐antitrypsin", "setting": "[1]", "result": 50, "unit": "fold"}, {"measurement": "Kd", "setting": "[1]; plasma‐purified wild‐type M α1‐antitrypsin, n = 10, mean ± SD, read-out: mean pKD (converted)", "result": 0.158, "unit": "µM"}, {"measurement": "binding to polymers of Z α1‐antitrypsin", "setting": "[2]", "result": "lack of binding"}, {"measurement": "IC50", "setting": "[3]", "result": 0.398, "unit": "µM"}, {"measurement": "inhibitory activity of antithrombin towards its cognate protease", "setting": "antithrombin", "result": "did not affect"}, {"measurement": "solubility", "setting": "Solubility in FaSSIF", "result": 969, "unit": "µg/mL"}, {"measurement": "EC50", "setting": "Adenosine A2a", "result": "> 100", "unit": "µM"}, {"measurement": "EC50", "setting": "Muscarinic M1", "result": "> 50.1", "unit": "µM"}, {"measurement": "IC50", "setting": "Muscarinic M1", "result": "> 50.1", "unit": "µM"}, {"measurement": "IC50", "setting": "NK1 (TACR1)", "result": "> 25.1", "unit": "µM"}, {"measurement": "Mean (PXC50): pMEC", "setting": "Phospholipidosis", "result": "pMEC= 5.8"}, {"measurement": "EC50", "setting": "PXR (rat)", "result": 12.6, "unit": "µM"}]}]}
